Measured values reported in the supplement of paper PMC10307832.

Tests used:
Test in all cases: relative viability (nuclei count vs DMSO), 5 days (fraction); higher = more cells survive
[1] = compound: CC[C@@H]1C(=O)N(C)c2cnc(Nc3ccc(C(=O)NC4CCN(C)CC4)cc3OC)nc2N1C1CCCC1 [BI-2536] + CC(C)C[C@H](NC(=O)[C@H](Cc1ccccc1)NC(=O)c1cnccn1)B(O)O [Bortezomib] (partner 0.002 µM)
How it was run: (§1)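 The day after seeding in 1536-well plates, lung cancer cell lines were treated by pin tool with a single drug, or with a fixed anchor-drug dose together with five library-drug doses (not always all listed) in √10 steps. After 5 days, a combined fix-and-stain solution (final 0.05% Triton X-100, 1% formaldehyde, 1 ug/ml Hoechst) was added. Nuclei counted on 4× images gave relative viability as treated counts over vehicle counts, reported as the median of duplicate plates.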

[2] = compound: CC1CC(=O)N(C2=CN=C(N=C2N1C3CCCC3)NC4=C(C=C(C=C4)C(=O)NC5CCN(CC5)C)OC)C [NPK76-II-72-1] + Cc1nc(NC(=O)N2CCC[C@H]2C(N)=O)sc1-c1ccnc(C(C)(C)C(F)(F)F)c1 [Alpelisib] (partner 2 µM)
How it was run: as §1

[3] = compound: CC1CC(=O)N(C2=CN=C(N=C2N1C3CCCC3)NC4=C(C=C(C=C4)C(=O)NC5CCN(CC5)C)OC)C [NPK76-II-72-1]
How it was run: (§2)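 Lung cancer cell lines received five library-drug doses (not always all listed) spaced by √10, pinned on vehicle-anchored 1536-well plates after an overnight stay at 37 °C. Five days later, with no medium change, nuclei were Hoechst-stained, imaged at 4× and counted with MetaXpress. Viability is treated-well nuclei relative to vehicle-well nuclei, as a median across plates. Passing plates had control CV below 25% and at least one doubling.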

[4] = compound: CC[C@@H]1C(=O)N(C)c2cnc(Nc3ccc(C(=O)NC4CCN(C)CC4)cc3OC)nc2N1C1CCCC1 [BI-2536]
How it was run: as §2

Row | Cell Line | relative viability ([1]; first compound 0.01 µM) | relative viability ([1]; first compound 0.03162 µM) | relative viability ([1]; first compound 0.1 µM) | relative viability ([1]; first compound 0.3162 µM) | relative viability ([1]; first compound 1 µM) | relative viability ([2]; first compound 0.01 µM) | relative viability ([2]; first compound 0.03162 µM) | relative viability ([2]; first compound 0.1 µM) | relative viability ([2]; first compound 0.3162 µM) | relative viability ([2]; first compound 1 µM) | relative viability ([3]; 0.01 µM) | relative viability ([3]; 0.03162 µM) | relative viability ([3]; 0.1 µM) | relative viability ([3]; 0.3162 µM) | relative viability ([3]; 1 µM) | relative viability ([4]; 0.01 µM) | relative viability ([4]; 0.03162 µM) | relative viability ([4]; 0.1 µM) | relative viability ([4]; 0.3162 µM) | relative viability ([4]; 1 µM)
1 | NCI-H1975 | 0.318 | 0.248 | 0.243 | 0.144 | 0.117 | 0.569 | 0.691 | 0.592 | 0.622 | 0.665 | 0.963 | 0.942 | 0.954 | 0.931 | 1.02 | 0.859 | 0.975 | 0.612 | 0.207 | 0.159
2 | CAL-12T | 0.926 | 0.823 | 0.393 | 0.182 | 0.192 | 1.13 | 1.15 | 0.877 | 1.03 | 1.27 | 0.933 | 1.02 | 1.01 | 0.927 | 1.15 | 0.882 | 0.849 | 0.718 | 0.159 | 0.198
3 | NCI-H1623 |  |  |  |  |  |  |  |  |  |  | 0.919 | 0.953 | 0.901 | 0.852 | 0.932 | 0.956 | 0.91 | 0.852 | 0.462 | 0.28
4 | HCC-44 | 0.905 | 0.885 | 0.297 | 0.14 | 0.0751 | 0.771 | 0.854 | 0.76 | 0.789 | 0.809 | 1 | 1.04 | 0.96 | 0.969 | 1.07 | 1.01 | 0.996 | 0.31 | 0.155 | 0.129
5 | EKVX | 0.976 | 1.16 | 1.03 | 0.164 | 0.148 | 0.796 | 0.897 | 0.884 | 0.716 | 1.1 | 0.946 | 0.938 | 0.953 | 0.713 | 1.21 | 0.966 | 1.05 | 0.958 | 0.254 | 0.165
6 | NCI-H1944 |  |  |  |  |  | 0.801 | 0.81 | 0.871 | 0.715 | 0.928 | 0.931 | 0.974 | 0.92 | 0.921 | 1.08 | 0.902 | 1.07 | 0.649 | 0.203 | 0.194
7 | NCI-H358 |  |  |  |  |  | 0.876 | 0.827 | 0.884 | 0.508 | 1.01 | 0.9 | 0.976 | 1.01 |  | 1.05 | 0.981 | 0.744 | 0.204 | 0.118 | 0.136
8 | NCI-H1793 |  |  |  |  |  | 0.611 | 0.679 | 0.677 | 0.521 | 0.788 | 0.76 | 1.06 | 1.15 | 0.741 | 0.915 | 0.912 | 0.816 | 0.314 | 0.161 | 0.196
9 | ChaGo-K-1 | 0.905 | 0.852 | 0.469 | 0.301 | 0.281 |  |  |  |  |  | 0.985 | 0.951 | 1.04 | 0.941 | 0.921 | 0.911 | 0.965 | 0.674 | 0.239 | 0.197
10 | NCI-H522 |  |  |  |  |  |  |  |  |  |  | 0.922 | 0.821 | 0.892 | 0.929 | 1.1 | 0.862 | 0.969 | 0.639 | 0.374 | 0.332
11 | NCI-H1650 | 0.198 | 0.195 | 0.18 | 0.18 | 0.171 |  |  |  |  |  | 0.86 | 0.993 | 0.929 | 0.891 | 0.996 | 0.889 | 0.801 | 0.219 | 0.14 | 0.143
12 | NCI-H1648 |  |  |  |  |  |  |  |  |  |  | 0.861 | 0.943 | 0.537 | 0.719 | 0.773 | 0.98 | 0.826 | 0.63 | 0.301 | 0.267
13 | SK-MES-1 |  |  |  |  |  | 0.835 | 0.847 | 0.868 | 0.907 | 0.883 | 0.986 | 1.03 | 0.989 | 1.01 | 1.09 | 1.07 | 0.975 | 0.614 | 0.196 | 0.179
14 | NCI-H2342 |  |  |  |  |  |  |  |  |  |  | 1.02 | 1.08 | 0.954 | 0.823 | 1.04 | 0.818 | 0.909 | 0.865 | 0.418 | 0.393
15 | SW 900 |  |  |  |  |  |  |  |  |  |  | 0.786 | 0.757 | 0.796 | 0.936 | 0.947 | 0.883 | 0.937 | 0.696 | 0.244 | 0.205
16 | LK-2 |  |  |  |  |  | 1 | 1.23 | 1.12 |  | 0.652 | 0.961 | 0.912 | 0.962 | 0.832 | 1.01 | 0.832 | 0.887 | 0.623 | 0.128 | 0.207
17 | NCI-H1395 |  |  |  |  |  | 1.02 | 0.994 | 0.979 | 1.17 | 1.03 | 0.893 | 0.906 | 0.953 | 0.955 | 0.993 | 0.844 | 0.817 | 0.435 | 0.337 | 0.34
18 | A549 |  |  |  |  |  | 0.84 | 0.824 | 0.889 | 0.716 | 0.769 | 0.937 | 1.05 | 1.01 | 1 | 1.03 | 0.987 | 0.936 | 0.628 | 0.0475 | 0.0473
19 | NCI-H2170 |  |  |  |  |  | 0.772 | 0.839 | 0.777 |  | 0.789 | 0.939 | 0.977 | 0.928 | 0.71 | 1.11 | 0.971 | 0.896 | 0.273 | 0.204 | 0.204
